In brackets after ≈: the same amount, converted by molar mass. Where two headings read alike, the source gives them in different places.
What was measured:
[1] = system: K. pneumoniae ATCC BAA-205 (TEM-1/SHV-1/SHV-12); assay: MIC by micro-liquid dilution method (CLSI); type: cell-based, Klebsiella pneumonia; details: Klebsiella pneumoniae, ATCCBAA205; K. pneumoniae ATCCBAA-205; read-out: MIC
[2] = system: K. pneumoniae ATCC BAA-1705 (KPC-2); assay: MIC by micro-liquid dilution method (CLSI); type: cell-based, Klebsiella pneumonia; details: Klebsiella pneumoniae, ATCCBAA1705; K. pneumoniae ATCCBAA-1705; read-out: MIC
[3] = system: K. pneumoniae ATCC BAA-2470 (NDM-1); assay: MIC by micro-liquid dilution method (CLSI); type: cell-based, Klebsiella pneumonia; details: Klebsiella pneumoniae, ATCCBAA2470; K. pneumoniae ATCCBAA-2470; read-out: MIC
[4] = system: E. coli ATCC BAA-2523 (OXA-48); assay: MIC by micro-liquid dilution method (CLSI); type: cell-based; details: Escherichia coli, ATCCBAA2523
From the text: (§1) Three strains of Klebsiella pneumonia, K. pneumoniae ATCC BAA-205 (TEM-1/SHV-1/SHV-12), K. pneumoniae ATCC BAA-1705 (KPC-2), K. pneumoniae ATCC BAA-2470 (NDM-1); three strains of Pseudomonas aeruginosa, P. aeruginosa NCTC13437 (VIM-10; VEB-1), P. aeruginosa PA 14 and P. aeruginosa ATCC 35151; four strains of Escherichia coli, E. coli NCTC 13476 (IMP-1 type), E. coli ATCC BAA-2523 (OXA-48), E. coli MG1655Δtol C, E. coli ATCC 25922; one strain of Acinetobacter baumannii, A. baumannii ATCC 17978 and one strain of Staphylococcus aureus, S. aureus NRS384 were used to determine the minimum inhibitory concentration (MIC) of the compounds by micro-liquid dilution method according to the Institute of Clinical and Laboratory Standard (CLSI) requirements.

E. coli MG1655Δtol C = assay: MIC by micro-liquid dilution method (CLSI); type: cell-based; details: Escherichia coli
From the text: as §1

[5] = system: E. coli NCTC 13476 (IMP-1 type); assay: MIC by micro-liquid dilution method (CLSI); type: cell-based; details: Escherichia coli; E. coli NCTC13476; read-out: MIC
From the text: as §1

P. aeruginosa PA 14 = assay: MIC by micro-liquid dilution method (CLSI); type: cell-based; details: Pseudomonas aeruginosa, PA14; P. aeruginosa PA 14; read-out: MIC
From the text: as §1

P. aeruginosa ATCC 35151 = assay: MIC by micro-liquid dilution method (CLSI); type: cell-based; details: Pseudomonas aeruginosa
A. baumannii ATCC 17978 = assay: MIC by micro-liquid dilution method (CLSI); type: cell-based; details: Acinetobacter baumannii; A. baumannii ATCC17978; read-out: MIC
E. coli ATCC 25922 = assay: MIC by micro-liquid dilution method (CLSI); type: cell-based; details: Escherichia coli
[6] = Pharmacokinetic experiment of the compounds in mice; type: in vivo; details: mouse, plasma, 2 mg/kg, Male CD-1 mice, fasting, 2 mpk
Experimental: In this experiment, six CD-1 mice (males) were divided into 2 groups (2 groups) according to their similar body weight. Group 1 and Group 2 were given respectively a single intravenous and intraperitoneal injection of the compounds of embodiment 13, embodiment 17, embodiment 32 and embodiment 34, each compound was at 2 mg/kg. The vehicles for intravenous and intraperitoneal injections were 5% dimethyl sulfoxide/95% water (10% polyoxyethylene castor oil), K2-EDTA (anticoagulant).
About 0.02 mL of blood samples from the saphenous vein were collected from all experimental animals, and the actual blood collection time was recorded. In this experiment, the deviation between the actual blood collection time and the theoretical blood collection time was in accordance with the regulations (the deviation of time points within 1 hour after administration were within 1 minute, and other deviations were within 5% of the theoretical time). After the blood samples were collected, they were immediately transferred to labeled centrifuge tubes containing K2 EDTA (0.5 M), followed by centrifugation (3,000 g, 4° C., 15 minutes) and the plasma was collected. The plasma was transferred to pre-cooled centrifuge tubes, quickly frozen in dry ice, and stored in an ultra-low temperature refrigerator at −60° C. or lower until LC-MS/MS analysis.

[7] = E. coli ATCC25922, read-out: MIC

Structure (SMILES) | MIC [1] [µg/mL] | MIC [2] [µg/mL] | MIC [3] [µg/mL] | MIC ([4]; E. coli ATCCBAA-2523, read-out: MIC) [µg/mL] | MIC (E. coli MG1655Δtol C) [µg/mL] | MIC [5] [µg/mL] | MIC (P. aeruginosa PA 14) [µg/mL] | MIC (P. aeruginosa ATCC 35151; P. aeruginosa ATCC35151, read-out: MIC) [µg/mL] | MIC (A. baumannii ATCC 17978) [µg/mL] | MIC (E. coli ATCC 25922; [7]) [µg/mL] | MIC [4] [µg/mL] | MIC (P. aeruginosa ATCC 35151; ATCC35151) [µg/mL] | MIC (E. coli ATCC 25922; ATCC25922) [µg/mL] | Vd ([6]; intravenous injection, read-out: Apparent distribution volume Vdss) [L/kg] | clearance ([6]; intravenous injection, read-out: Clearance rate Cl) [mL/min/kg] | AUC(0-t) ([6]; intravenous injection, read-out: Exposure AUC0-last) [µM·h] | half-life ([6]; intravenous injection, read-out: Half-life period T1/2 (converted)) [min] | C0 ([6]; intravenous injection, read-out: Initial concentration C0) [µM] | bioavailability ([6]; second section of Table 7 (intravenous injection)) [%] | Cmax ([6]; second section of Table 7 (intravenous injection), read-out: Maximum concentration Cmax) [µM]
CC1(C)[C@H](NC(=O)/C(=N\OCCOc2ccc3c(c2)CN(C(=N)N)CC3)c2csc(N)n2)C(=O)N1OS(=O)(=O)O [Compound 10] | 16 (≈ 26.8 µM) | 4 (≈ 6.7 µM) | 4 (≈ 6.7 µM) | 0.25 (≈ 0.419 µM) | ≤ 0.125 | 2 (≈ 3.35 µM) | 8 (≈ 13.4 µM) | 0.25 (≈ 0.419 µM) | 4 (≈ 6.7 µM) | 1 (≈ 1.68 µM) |  |  |  |  |  |  |  |  |  | 
CC1(C)[C@H](NC(=O)/C(=N\OCCOc2ccc3c(c2)CCN(C(=N)N2CCNCC2)C3)c2csc(N)n2)C(=O)N1OS(=O)(=O)O [Compound 11] | 16 (≈ 24 µM) | 1 (≈ 1.5 µM) | 1 (≈ 1.5 µM) |  | ≤ 0.125 | 0.5 (≈ 0.751 µM) | 4 (≈ 6.01 µM) |  | 2 (≈ 3 µM) | 0.25 (≈ 0.376 µM) | ≤ 0.125 | ≤ 0.125 |  |  |  |  |  |  |  | 
CC1(C)[C@H](NC(=O)/C(=N\OCCOc2ccc3c(c2)CCN(C(=N)NC2CCNCC2)C3)c2csc(N)n2)C(=O)N1OS(=O)(=O)O [Compound 12] | 16 (≈ 23.5 µM) | 1 (≈ 1.47 µM) | 1 (≈ 1.47 µM) |  | ≤ 0.125 | 0.25 (≈ 0.368 µM) | 2 (≈ 2.94 µM) |  | 0.5 (≈ 0.736 µM) |  | ≤ 0.125 | ≤ 0.125 | ≤ 0.125 |  |  |  |  |  |  | 
CC1(C)[C@H](NC(=O)/C(=N\OCCOc2ccc3c(c2)CN(C(=N)NCCCN)C3)c2csc(N)n2)C(=O)N1OS(=O)(=O)O [Compound 13] |  |  |  |  |  |  |  |  |  |  |  |  |  | 0.281 | 8.51 | 6.73 | 28.6 | 18.9 | 88.4 | 5.76
